Patent US20260224524A1, “A PHARMACEUTICAL COMPOSITION TARGETING MUTANT P53 AND HER2” (DR DOZO LABORATORIES, priority 2023, published 2026)
In brackets after ≈: the same amount, converted by molar mass.

Columns and labels:
[1] = Human tumour xenograft MDA-MB-231 model, animal body weight; format: in vivo, mice; conditions: for Animal Body Weight: Group B, 2.5 mg/kg i.v. day 1, 5, 9
Protocol: (§1) The therapeutic effect of SACC is evaluated against triple-negative breast cancer cell line MDA-MB-231 by analysing tumour volume and relative tumour volume. The study involved the use of six mice. These mice were administrated treatment according to the following Groups: […]

[2] = Human tumour xenograft MDA-MB-231 model, survival; format: in vivo; conditions: for % Survival: Group B, 2.5 mg/kg i.v. day 1, 5, 9
Protocol: as §1

[3] = tested on: Human Breast Cancer Cell Line MDA-MB-231; assay: Growth inhibition (% control growth, LC50, TGI, GI50) MDA-MB-231; format: cell-based
Protocol: The therapeutic effect of […] (peak 5) and SA2 (peak 4) is evaluated against human […] cancer cell line MDA-MB-231 by calculating the percentage growth inhibition, drug concentration of test compound needed to inhibit cell growth by 50% (GI50) values.
The therapeutic effect of SACC is evaluated against human […] cancer cell lines MDA-MB-231 by calculating the percentage growth inhibition, drug concentration of test compound needed to inhibit cell growth by 50% (GI50) values.

[4] = tested on: Human Lung Cancer Cell Line A-549; assay: Growth inhibition (% control growth, LC50, TGI, GI50) A-549; format: cell-based
Protocol: The therapeutic effect of SA1 (peak 5) and SA2 (peak 4) is evaluated against human lung cancer cell line A-549 by calculating the percentage growth inhibition, drug concentration of test compound needed to inhibit cell growth by 50% (GI50) values.
The therapeutic effect of SACC is evaluated against human lung cancer cell line A-549 by calculating the percentage growth inhibition, drug concentration of test compound needed to inhibit cell growth by 50% (GI50) values.

In the case of `COc1cccc2c1C(=O)c1c(O)c3c(c(O)c1C2=O)C[C@@](O)(C(=O)CO)C[C@@H]3O[C@H]1C[C@H](N)[C@H](O)[C@H](C)O1` [ADR, Adriamycin], the “Animal Body Weight” value ([1]; day 1) was 20.9 Grams, the “Animal Body Weight” value ([1]; day 5) was 19.9 Grams and the “Animal Body Weight” value ([1]; day 9) was 20.3 Grams. For the same molecule, the “Animal Body Weight” value ([1]; day 12) was 20.1 Grams, the “Animal Body Weight” value ([1]; day 15) was 19.5 Grams and the “Animal Body Weight” value ([1]; day 18) was 20.4 Grams. For the same molecule, the “Animal Body Weight” value ([1]; day 21) was 20.0 Grams, the “Animal Body Weight” value ([1]; day 25) was 20.2 Grams and the “Animal Body Weight” value ([1]; day 30) was 21.6 Grams. For the same molecule, the “change in body weight (in words)” value ([1]; average body weight over 30 days) was “minimal change in body weight”, the “% Survival” value ([2]; day 1) was 100% and the “% Survival” value ([2]; day 5) was 100%. For the same molecule, the “% Survival” value ([2]; day 9) was 100%, the “% Survival” value ([2]; day 12) was 100% and the “% Survival” value ([2]; day 15) was 100%. The “% Survival” value ([2]; day 18) was 100%, the “% Survival” value ([2]; day 21) was 100% and the “% Survival” value ([2]; day 25) was 100%. For the same molecule, the “% Survival” value ([2]; day 30) was 83%, the survival rate ([2]; till 25 days) was 100% and the “% Control Growth” value ([3]; 10 μg/ml, Average Values) was −88.7%. For the same molecule, the “% Control Growth” value ([3]; 10 μg/ml, Experiment 1) was −90.5%, the “% Control Growth” value ([3]; 10 μg/ml, Experiment 3) was −86.3% and the “% Control Growth” value ([3]; 20 μg/ml, Average Values) was −83.1%. For the same molecule, the “% Control Growth” value ([3]; 20 μg/ml, Experiment 2) was −84.8%, the “% Control Growth” value ([3]; 20 μg/ml, Experiment 3) was −79.3% and the “% Control Growth” value ([3]; 40 μg/ml, Average Values) was −81.2%. For the same molecule, the “% Control Growth” value ([3]; 40 μg/ml, Experiment 2) was −82.5%, the “% Control Growth” value ([3]; 40 μg/ml, Experiment 3) was −80.2% and the “% Control Growth” value ([3]; 80 μg/ml, Average Values) was −74.8%. For the same molecule, the “% Control Growth” value ([3]; 80 μg/ml, Experiment 1) was −75.2%, the “% Control Growth” value ([3]; 80 μg/ml, Experiment 2) was −78.1% and the “% Control Growth” value ([3]; 10^−4M, Average Values) was −69.1%. The “% Control Growth” value ([3]; 10^−4M, Experiment 1) was −68.3%, the “% Control Growth” value ([3]; 10^−4M, Experiment 2) was −69.6% and the “% Control Growth” value ([3]; 10^−4M, Experiment 3) was −69.4%. The “% Control Growth” value ([3]; 10^−5M, Average Values) was −82.4%, the “% Control Growth” value ([3]; 10^−5M, Experiment 1) was −80.5% and the “% Control Growth” value ([3]; 10^−5M, Experiment 2) was −83.4%. The “% Control Growth” value ([3]; 10^−5M, Experiment 3) was −83.3%, the “% Control Growth” value ([3]; 10^−6M, Average Values) was −85.0% and the “% Control Growth” value ([3]; 10^−6M, Experiment 1) was −83.1%. For the same molecule, the “% Control Growth” value ([3]; 10^−6M, Experiment 2) was −86.2%, the “% Control Growth” value ([3]; 10^−6M, Experiment 3) was −85.8% and the “% Control Growth” value ([3]; 10^−7M, Average Values) was −87.8%. The “% Control Growth” value ([3]; 10^−7M, Experiment 1) was −82.8%, the “% Control Growth” value ([3]; 10^−7M, Experiment 2) was −91.0% and the “% Control Growth” value ([3]; 10^−7M, Experiment 3) was −89.6%. The GI50 ([3]; Homo sapiens, calculated from graph) was under 10 µg/mL, the TGI ([3]; calculated from graph) was under 10 µg/mL and the “% Control Growth” value ([4]; A-549, 10 μg/ml, Average Values) was −26.5%. The “% Control Growth” value ([4]; A-549, 10 μg/ml, Experiment 1) was −23.5%, the “% Control Growth” value ([4]; A-549, 10 μg/ml, Experiment 2) was −29.5% and the “% Control Growth” value ([4]; A-549, 10 μg/ml, Experiment 3) was −26.5%. The “% Control Growth” value ([4]; A-549, 20 μg/ml, Average Values) was −30.8%, the “% Control Growth” value ([4]; A-549, 20 μg/ml, Experiment 1) was −28.2% and the “% Control Growth” value ([4]; A-549, 20 μg/ml, Experiment 2) was −33.8%. For the same molecule, the “% Control Growth” value ([4]; A-549, 20 μg/ml, Experiment 3) was −30.4%, the “% Control Growth” value ([4]; A-549, 40 μg/ml, Average Values) was −46.0% and the “% Control Growth” value ([4]; A-549, 40 μg/ml, Experiment 1) was −45.0%. For the same molecule, the “% Control Growth” value ([4]; A-549, 40 μg/ml, Experiment 2) was −48.7%, the “% Control Growth” value ([4]; A-549, 40 μg/ml, Experiment 3) was −44.2% and the “% Control Growth” value ([4]; A-549, 80 μg/ml, Average Values) was −50.0%. For the same molecule, the “% Control Growth” value ([4]; A-549, 80 μg/ml, Experiment 1) was −49.4%, the “% Control Growth” value ([4]; A-549, 80 μg/ml, Experiment 2) was −51.0% and the “% Control Growth” value ([4]; A-549, 80 μg/ml, Experiment 3) was −49.4%. For the same molecule, the “% Control Growth” value ([4]; A-549, 10^−4M, Average Values) was −43.0%, the “% Control Growth” value ([4]; A-549, 10^−4M, Experiment 1) was 36.5% and the “% Control Growth” value ([4]; A-549, 10^−4M, Experiment 2) was 44.4%. The “% Control Growth” value ([4]; A-549, 10^−4M, Experiment 3) was −48.1%, the “% Control Growth” value ([4]; A-549, 10^−5M, Average Values) was −34.9% and the “% Control Growth” value ([4]; A-549, 10^−5M, Experiment 1) was −30.6%. For the same molecule, the “% Control Growth” value ([4]; A-549, 10^−5M, Experiment 2) was −33.8%, the “% Control Growth” value ([4]; A-549, 10^−5M, Experiment 3) was −40.3% and the “% Control Growth” value ([4]; A-549, 10^−6M, Average Values) was −4.0%. The “% Control Growth” value ([4]; A-549, 10^−6M, Experiment 1) was 10.2%, the “% Control Growth” value ([4]; A-549, 10^−6M, Experiment 2) was −11.3% and the “% Control Growth” value ([4]; A-549, 10^−6M, Experiment 3) was −11.0%. The “% Control Growth” value ([4]; A-549, 10^−7M, Average Values) was 12.4%, the “% Control Growth” value ([4]; A-549, 10^−7M, Experiment 1) was 53.2% and the “% Control Growth” value ([4]; A-549, 10^−7M, Experiment 2) was 15.9%. For the same molecule, the “% Control Growth” value ([4]; A-549, 10^−7M, Experiment 3) was −32.0%, the TGI ([4]; A-549, Molar drug concentrations calculated from graph) was 4.143 µg/mL (≈ 7.62 µM) and the TGI ([4]; A-549, calculated from graph) was under 10 µg/mL. For the same molecule, the GI50 ([4]; Homo sapiens, A549, A-549, calculated from graph) was under 10 µg/mL, the CC50 ([4]; Homo sapiens, A549, read-out: LC50, A-549, calculated from graph) was 72 µg/mL (≈ 132 µM) and the GI50 ([4]; Homo sapiens, A549, A-549, Molar drug concentrations calculated from graph) was 1.2 µg/mL (≈ 2.21 µM).
